Values joined by “and” are separate entries in the source; they are usually repeats but may differ in a detail not shown here. Equal values may be shown once.
How the values were obtained:
[1] = tested on: HaCaT cells; assay: In vitro cell cytotoxicity (MTT) assay on HaCaT cells; assay type: cell-based, human; conditions: for IC50: 72 h incubation, MTT
Excerpt: HaCaT (human, adult, low calcium, high temperature, human adult skin keratinocytes) cells were obtained from the IMB (Institute of Medical Biology) Skin Cell Bank. Fetal bovine serum (FBS), Dulbecco's minimum essential medium (DMEM) and trypsin EDTA solution were purchased from GE healthcare life sciences, Utah. Penicillin/streptomycin, dimethyl sulfoxide (DMSO), and phosphate buffered saline (PBS) were from Fisher Scientific (Singapore). Para-phenylenediamine (PPD) was purchased from Sigma Aldrich (Singapore). PPD analogues such as Dimer, trimer, ethyl hexyl para-phenylenediamine (EHPPD), hexyl para-phenylenediamine (HPPD), Bandrowski base (BB) were synthesized in house.
Cell viability was essentially determined using the MTT assay as described in the literature. The HaCaT cells were grown in DMEM with 10% FBS and 1% penicillin/streptomycin. The cells in T-75 cm^2 culture flasks were incubated with 5% CO2 at 37° C. in a humidified incubator. The HaCaT cells were grown to expected confluency and then they were harvested by trypsinizing the cell with 0.25% trypsin/EDTA and incubated at 37° C. for 5 min to obtain the complete cell detachment. After the incubation, cell pellets were resuspended, and washed twice with 1×PBS. The cell suspension in 1×PBS was counted and adjusted to 1×10^5/mL. A HaCaT keratinocyte suspension (100 μL in 1×PBS) with a cell concentration of 1×10^5 cells/mL) and a test solution (100 μL in milli-Q water) were combined in each well of two 96-well plates. Test solutions with a desired concentration were prepared by serial dilutions of the stock solutions with 1×PBS.
For the cytotoxicity experiment, cells were seeded at a density of 5×10^3 in 200 ul of medium into each well of 96-well plates. Cells were seeded as three sets of four replicates for each concentration. After 24 h of incubation, the cells were washed with PBS and cultured for 72 h with 200 ul of 10% FBS containing DMEM medium, together with the different concentrations of the test compounds ranging from 500 μM to 1.9 μM for PPD and analogues 1-5 and standard in a serial dilution. Then the medium was removed and 100 μl of MTT [3-(4,5-dimethylthiazol-2yl)-2,5-diphenyl-2H-tetrazolium bromide](1 mg/ml) (Alfa Aesar, Singapore) in PBS was added. At the end of 4 h incubation, the plates were removed from the incubator and plates were shaken for 5 min. The absorbance at 570 nm was determined using Bio-Tek plate reader. The cell viability rates were calculated from absorbance readings and represented as percentages of control value (untreated cells).

[2] = tested on: cysteine peptide (Ac-RFAACAA-COOH); assay: Direct Peptide Reactivity Assay, cysteine peptide; conditions: for % of Cysteine depletion, Avg / % of Cysteine depletion, Rep 2 / % of Cysteine depletion, Rep 3 / Reactivity Class: 1:10; for % of Cysteine depletion, Rep 1: peptide 0.02 mM : test chemical 0.2 mM (1:10); for Reactivity Class: cysteine
Procedure: For cysteine DPRA, an additional step was performed.
(§1) The mass spectrometric analysis was performed by use of a AB SCIEX QTRAP 5500 tandem mass spectrometry (MS/MS) system (AB SCIEX, Framingham, Mass., USA) operating in triple quadrupole positive mode (ESI+) equipped with an AB Sciex Turbo Ion Spray interface. Acquisition and analysis of data were performed with Analyst software ver. 1.6.2 (Applied Biosystems).

[3] = tested on: lysine peptide (Ac-RFAAKAA-COOH); assay: Direct Peptide Reactivity Assay, lysine peptide; conditions: for % of Lysine depletion, Avg / % of Lysine depletion, Rep 2 / % of Lysine depletion, Rep 3 / Reactivity Class: 1:50; for % of Lysine depletion, Rep 1: peptide 0.02 mM : test chemical 1 mM (1:50); for Reactivity Class: lysine
Procedure: as §1

[4] = tested on: cysteine and lysine peptides; assay: Direct Peptide Reactivity Assay, mean of cysteine and lysine depletion (FIG. 12); conditions: for Sensitizing potential predicted from mean peptide depletion: cysteine 1:10 / lysine 1:50 model; for Mean peptide depletion: mean of cysteine (1:10) and lysine (1:50), FIG. 12
Procedure: Direct reactivity of test chemical to lysine-based synthetic peptide was determined in reactions containing 100 mM ammonium acetate buffer (pH 10.2). The final concentration of lysine peptide was 20 μM in a final reaction volume of 0.3 ml. Direct reactivity of test chemicals to cysteine-based synthetic peptide was determined in 100 mM Sodium Phosphate buffer of pH 7.5.
For the DPRA, incubation mixtures were prepared using each peptide to test compound ratios of both 1:10 for cysteine peptide and 1:50 for lysine peptide, according to Table 19. […] Sample reactions were initiated by adding 3 μl of a test chemical stock solution for cysteine and 15 μl stock solution for lysine peptide. These mixtures were then placed in a temperature-controlled shaking incubator at 25° C.
At each time point (20 mins/24 hours), the incubation mixtures were quenched with 75 μL of 95% ACN/H2O, and mildly vortexed (600 rpm, 3 seconds). For Lysine DPRA experiment, 10 μl of aliquot was diluted with 2% ACN/H2O, vortexed and stored at −80° C. until analysis by LC-MS/MS. For cysteine DPRA, an additional step was performed. 10 μl of cysteine reaction mixture, at time points 20 min and 24 h were diluted in 180 μl of 2% ACN/H2O. To which, a 10 μl aliquot of a 16 mM dithiothreitol solution (prepared in water) was then added, and samples were heated in a 45° C. oven for 30 min, then allowed to cool to room temperature prior to analysis. The peptide depletion (PD) percentage was obtained using this equation.

[5] = tested on: IL-8; assay: IL-8 ELISA on THP-1 cell supernatants; assay type: cell-based, human; conditions: preliminary ELISA, CV75
Procedure: (§2) For cytokine profiling in THP-1, supernatants from wells were collected and then used for cytokine analysis by a Chemokine immunosorbent assay Bio-legend ELISA Max kit. The levels of available IL-8 protein from THP-1 cell supernatants was estimated using this kit which are regulated upon activation of THP-1 model. Surface receptor expression of human CD-86, CD-54, MHC-I and IL-T3 were analyzed by flow cytometry using standard BD FACS analyzer with PE and FITC fluorescent labeled antibodies from Biolegend and e Bioscience.
(§3) In order to understand the effect of modified PPD hairdyes on THP-1 immune sensitization, a certain degree of Cytotoxicity at CV75% viable where 25% cell death is required before evaluation of supernatants in THP-1 models for expression of cytokine IL-8 and receptor expression of CD86, CD54, MHC-I and IL-T3 surface receptors upon treatment with standard PPD and modified hair dye compounds. Most allergens show a specific dose-dependent alteration of CD86 and/or CD54 expression or secretion of cytokine profiles. But depending on chemical, the alteration pattern may vary.

[6] = Solubility observed when preparing dyes; assay type: physicochemical; conditions: water / organic solvents
[7] = Skin permeation in vertical Franz diffusion cells; assay type: in vitro ADME, porcine; conditions: 8 h; for Penetration profile PPD vs derivatives (times less than PPD): ratio of PPD penetration to that of the compound
Procedure: Porcine ears were generously provided by the NUS Department of Surgery. The ears were frozen at −80° C. until use (up to 3 months) and thawed at room temperature on the day preceding the experiment. Prior to the experiment, the skin was separated from the cartilage and dermatomed to a thickness of ˜1.0 mm using an Acculan™ 3Ti dermatome (Aesculap, Inc., B. Braun, USA).
The PPD and derivatives were dissolved in deionized water at 1% w/v. The PPD and PPD derivatives 1-5 solutions were purged with argon gas to minimize oxidation of the donor solution.
Skin penetration studies were carried out using vertical Franz diffusion cells (PermeGear, USA) immersed in a 37° C. water bath. The donor and receptor volumes were 900 µL and 5 mL, respectively; the mean surface area of penetration was 0.64 cm^2. Upon insertion of the skin pieces into the Franz cells, the skin was equilibrated for 45 min with PBS in the receptor compartment. After equilibration, the skin's trans-epidermal water loss (TEWL) was measured using an Aquaflux AF300 (Biox, UK) to assess the integrity of the skin's stratum corneum barrier. The donor solution, consisting of PPD or derivative 1-5 (n=3 Franz cells each), was then added to the donor compartment and the penetration experiments were conducted for 8 h. The receptor solutions were continuously stirred with magnetic stirrers. At fixed time points, aliquots of 200 μL were taken from the receptor solution of each cell and the receptor solution topped up with 200 μL of fresh PBS. At the end of the experiment, the donor and receptor solutions were removed and the cells dismantled. For the purpose of mass balance on the PPD, PPD derivatives 1-5 the skin pieces and swabs of their outer surfaces were collected and stored in acetonitrile for PPD or derivative 1-5 extraction. The donor solution as well as PBS used to thoroughly wash each part of the Franz cells were also collected.
PPD, PPD derivatives 1-5 and metabolite concentrations in all permeation and mass balance samples were measured by LCMS. PPD steady state fluxes and permeability coefficients were calculated by fitting the solution to Fick's second law of diffusion at the steady state to the linear part of each experimental cumulative amount curve.
The validated method LCMS was applied to quantify PPD, PPD derivative 1-5 and metabolites from skin permeation study samples. FIGS. 3 and 4 show LCMS spectra for the identification of PPD and PPD derivatives 1 and 2 and metabolites from skin permeation study experiment.

[8] = tested on: ILT3; assay: ILT3 surface expression on THP-1 by flow cytometry; assay type: cell-based, human; conditions: in comparison to DCNB
Procedure: as §2, §3

Structure (SMILES)	IC50 [1]	% of Cysteine depletion, Avg ([2]; 20 min)	% of Cysteine depletion, Rep 2 ([2]; 20 min)	% of Cysteine depletion, Rep 3 ([2]; 20 min)	% of Cysteine depletion, Rep 1 ([2]; 20 min)	% of Cysteine depletion, Avg ([2]; 24 h)	% of Cysteine depletion, Rep 2 ([2]; 24 h)	% of Cysteine depletion, Rep 3 ([2]; 24 h)	% of Cysteine depletion, Rep 1 ([2]; 24 h)	Reactivity Class ([2]; 20 min)	Reactivity Class ([2]; 24 h)	% of Lysine depletion, Avg ([3]; 20 min)	% of Lysine depletion, Rep 2 ([3]; 20 min)	% of Lysine depletion, Rep 3 ([3]; 20 min)	% of Lysine depletion, Rep 1 ([3]; 20 min)	% of Lysine depletion, Avg ([3]; 24 h)	% of Lysine depletion, Rep 2 ([3]; 24 h)	% of Lysine depletion, Rep 3 ([3]; 24 h)	% of Lysine depletion, Rep 1 ([3]; 24 h)	Sensitizing potential predicted from mean peptide depletion [4]	also measured
NC1=CC(=Nc2ccc(N)cc2)C(N)=CC1=Nc1ccc(N)cc1 [Bandrowski Base, reference compound]	6.09 µM	44.2%	44.5%	45.5%	42.5%	70.7%	69.9%	70.4%	71.8%	High	High	6.7%	7.89%	2.54%	9.58%	5.6%	6.0%	5.5%	5.4%	moderate sensitizer	Reactivity Class ([3]; 20 min): Low; Reactivity Class ([3]; 24 h): Low; Mean peptide depletion [4]: 38.9%; IL-8 expression [5]: increased expression; Solubility (in words) [6]: limited solubility in water
COCc1cc(N)ccc1N [MEPPD, 2-(methoxymethyl)benzene-1,4,-diamine, reference compound]	544 µM																			strong sensitizer	% Parent compound Penetrated (mean) ([7]; 1% W/V applied): 0.02%; % Parent compound Recovery (mean) ([7]; 1% W/V applied): 95.39%; % converted to metabolite (mean) ([7]; 1% W/V applied): 0.019%; Penetration profile PPD vs derivatives (times less than PPD) [7]: 8 and 8.1; Penetration profile PPD vs derivatives (times less than PPD) ([7]; listed as ME-PPD): about 7.5; Fold increase in IC50 compared to PPD [1]: 19 fold; ILT3 (inhibitory receptor) expression [8]: increased; Mean peptide depletion [4]: 53.2%; IL-8 expression [5]: increased expression
Nc1ccc(Nc2ccc(Nc3ccc(N)cc3)cc2)cc1 [PPD derivative 2, N^1,N^4-bis(4-aminophenyl)-1,4-benzenediamine]		54.0%	53.6%	52.6%	55.6%	64.1%	65.6%	61.2%	65.6%	High	High	11.2%	11.8%	11.8%	10.1%	9.08%	9.79%	8.28%	8.97%	high sensitizing agents	% Parent compound Penetrated (mean) ([7]; 1% W/V applied): 0.00173%; % converted to metabolite (mean) ([7]; 1% W/V applied): 0.008%; recovery at 8 h, 1 % w/v ([7]; pig, 1% W/V applied, read-out: % Parent compound Recovery (mean)): 96.4%; Penetration profile PPD vs derivatives (times less than PPD) ([7]; listed as PPD 2): 93 and 93.6; Fold increase in cytotoxicity compared to PPD 1 [1]: 6 fold; IC50 ([1]; Homo sapiens, HaCaT, 72 h): 4.14 µM; Reactivity Class ([3]; 20 min): Low; Reactivity Class ([3]; 24 h): Low; ILT3 (inhibitory receptor) expression [8]: increased
